From paper PMC9318133 (International Journal of Molecular Sciences, 2022)
Like-named read-outs stand apart in the source and are kept apart here.

Experiments:
human CB2 receptors [1] = target: T1, human CB2 receptors (Homo sapiens, UniProt P34972); assay: [3H]-CP-55,940 competition binding, CHO cell membranes transfected with human CB2 receptors
T1 construct: host or cells: CHO cells
Procedure: To obtain membranes, cells were washed with phosphate-buffered saline (PBS) and scraped off with ice-cold hypotonic buffer (5 mM Tris HCl, 2 mM EDTA, pH 7.4). The cell suspension was homogenized with a Polytron and then centrifuged for 30 min at 40,000× g. The membrane pellet was suspended in 50 mM Tris HCl buffer (pH 7.4) containing 2.5 mM ethylenediaminetetraacetic acid (EDTA), 5 mM MgCl2, and 0.5 mg/mL bovine serum albumin (BSA) for CB1 receptors or in 50 mM Tris HCl (pH 7.4), 1 mM EDTA, 5 mM MgCl2, and 0.5% BSA for CB2 receptors.
For human cannabinoid receptors, membranes obtained from CHO cells transfected with human CB1 or CB2 receptors (2 µg protein/100 µL) were used. […] Bound and free radioactivity were separated by filtering the assay mixture through Whatman GF/C glass fiber filters using a Brandel cell harvester (Brandel Instruments, Unterföhring, Germany).
The protein concentration was determined according to a Bio-Rad method with bovine serum albumin as a reference standard. Inhibitory binding constants, Ki, were calculated from the IC50 values according to the Cheng and Prusoff equation:Ki = IC50/(1 + [C*]/KD*) where [C*] is the concentration of the radioligand and KD* its dissociation constant. Functional experiments were analyzed by non-linear regression analysis using the equation for a sigmoid concentration–response curve (GraphPad Prism, San Diego, CA, USA). […]

mouse CB1 receptors [2] = target: T2, mouse CB1 receptors (Mus musculus, UniProt P47746); assay: [3H]-CP-55,940 competition binding, mouse brain (cortex) membranes
T2 construct: membranes from the mouse brain and spleen were used, respectively; from tissue
T2 sequence (P47746 whole entry): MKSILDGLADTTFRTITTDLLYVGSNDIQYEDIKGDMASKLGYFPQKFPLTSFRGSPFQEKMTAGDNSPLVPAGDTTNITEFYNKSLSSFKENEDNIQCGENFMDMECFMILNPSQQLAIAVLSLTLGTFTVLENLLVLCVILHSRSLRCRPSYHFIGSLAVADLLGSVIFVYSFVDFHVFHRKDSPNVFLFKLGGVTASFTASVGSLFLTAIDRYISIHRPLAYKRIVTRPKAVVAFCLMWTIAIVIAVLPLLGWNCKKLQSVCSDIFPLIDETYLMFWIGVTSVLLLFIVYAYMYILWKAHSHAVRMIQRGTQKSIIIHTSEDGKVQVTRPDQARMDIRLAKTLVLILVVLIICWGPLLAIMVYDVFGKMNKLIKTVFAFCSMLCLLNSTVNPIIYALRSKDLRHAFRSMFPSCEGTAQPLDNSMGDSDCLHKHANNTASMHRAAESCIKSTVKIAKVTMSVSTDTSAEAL
Procedure: (§1) Following excision from mice, tissues were suspended in 50 mM Tris HCl, pH 7.4, at 4 °C. The mouse brain and spleen tissues were homogenized with a Polytron and subsequently centrifuged for 10 min at 2000× g. The resulting supernatants were filtered and centrifuged for 20 min at 40,000× g, and the pellets were used for competition binding experiments.
(§2) Competition binding experiments were carried out by incubating 0.5 nM [3H]-CP-55,940 (Perkin Elmer Life and Analytical Sciences, Waltham, MA, USA) and different concentrations of the tested compounds for 90 or 60 min at 30 °C for CB1 or CB2 receptors, respectively. […] Non-specific binding was determined in the presence of 1 μM WIN 55,212-2 [92]. Bound and free radioactivity were separated by filtering the assay mixture through Whatman GF/C glass fiber filters using a Brandel cell harvester (Brandel Instruments, Unterföhring, Germany). The filter-bound radioactivity was counted using a Packard Tri Carb 2810 TR scintillation counter (Perkin Elmer Life and Analytical Sciences, Waltham, MA, USA).
(§3) The protein concentration was determined according to a Bio-Rad method with bovine serum albumin as a reference standard. Inhibitory binding constants, Ki, were calculated from the IC50 values according to the Cheng and Prusoff equation:Ki = IC50/(1 + [C*]/KD*) where [C*] is the concentration of the radioligand and KD* its dissociation constant. […]

mouse CB2 receptors [3] = target: T3, mouse CB2 receptors (Mus musculus, UniProt P47936); assay: [3H]-CP-55,940 competition binding, mouse spleen membranes
T3 construct: membranes from the mouse brain and spleen were used, respectively; from tissue; host or cells: mouse spleen membranes, CD-1 mice
T3 sequence (P47936 whole entry): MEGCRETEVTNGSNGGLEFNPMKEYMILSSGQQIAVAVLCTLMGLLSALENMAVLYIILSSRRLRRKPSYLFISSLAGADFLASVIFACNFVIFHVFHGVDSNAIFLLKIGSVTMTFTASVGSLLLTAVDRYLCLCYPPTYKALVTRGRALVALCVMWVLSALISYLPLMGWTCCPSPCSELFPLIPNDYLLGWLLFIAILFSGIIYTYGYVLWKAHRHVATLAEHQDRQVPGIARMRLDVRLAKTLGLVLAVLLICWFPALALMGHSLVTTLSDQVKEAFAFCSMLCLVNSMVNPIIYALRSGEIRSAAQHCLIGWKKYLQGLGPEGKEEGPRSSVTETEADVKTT
Procedure: as §1, §2, §3

CD-1 mice [4] = assay: Visual placing response test; type: in vivo, mouse
CD-1 mice [5] = assay: Breath rate evaluation; type: in vivo, mouse
CD-1 mice [6] = assay: Core (rectal) temperature evaluation; type: in vivo, mouse
human CB2 receptors [7] = target: T1, human CB2 receptors; design: method as in PMID 27527584, PMID 25769232; settings: read-out: hCB2 CHO Membranes Ki; [3H]-CP-55,940 competition binding; mean ± SEM; data elaborated from ref [15],[33]; cited from earlier work
mouse CB1 receptors [8] = target: T2, mouse CB1 receptors; design: method as in PMID 27527584, PMID 25769232; settings: read-out: Mouse Cortex Membranes CB1 Ki; [3H]-CP-55,940 competition binding; mean ± SEM; data elaborated from ref [15],[33]; cited from earlier work
mouse CB2 receptors [9] = target: T3, mouse CB2 receptors; design: method as in PMID 27527584, PMID 25769232; settings: read-out: Mouse Spleen Membranes CB2 Ki; [3H]-CP-55,940 competition binding; mean ± SEM; data elaborated from ref [15],[33]; cited from earlier work
CD-1 mice [10] = tested on: CD-1 mice; design: method as in PMID 25769232, PMID 25987201; settings: ED50 + SEM, data elaborated from ref [33],[34]; cited from earlier work
CD-1 mice [11] = tested on: CD-1 mice; design: method as in PMID 25769232, PMID 25987201; settings: ED50 + SEM, data elaborated from ref [33],[34]; cited from earlier work; remark: listed apart in the source
CD-1 mice [12] = tested on: CD-1 mice; design: method as in PMID 25769232, PMID 25987201; settings: ED50 + SEM, data elaborated from ref [33],[34]; cited from earlier work; remark: listed apart in the source
[13] = 0.01–30 mg/kg i.p., monitored over 5 h
[14] = Mus musculus, ip, mice, ED50 + SEM

T1 sequence (P34972 whole entry): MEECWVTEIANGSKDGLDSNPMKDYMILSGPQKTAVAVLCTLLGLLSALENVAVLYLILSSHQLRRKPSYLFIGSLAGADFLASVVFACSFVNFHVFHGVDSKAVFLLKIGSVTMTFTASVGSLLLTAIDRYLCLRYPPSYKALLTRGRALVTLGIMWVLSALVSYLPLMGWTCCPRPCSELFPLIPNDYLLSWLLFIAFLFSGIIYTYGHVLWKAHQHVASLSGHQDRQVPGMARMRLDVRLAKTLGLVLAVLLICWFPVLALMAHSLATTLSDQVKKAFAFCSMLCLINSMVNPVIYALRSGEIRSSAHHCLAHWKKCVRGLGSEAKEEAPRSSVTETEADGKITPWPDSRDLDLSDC

| Structure (SMILES) | Ki (human CB2 receptors [1]) [nM] | Ki (mouse CB1 receptors [2]) [nM] | Ki (mouse CB2 receptors [3]) [nM] | effect on visual placing response (CD-1 mice [4]; [13]) | ED50 (CD-1 mice [4]; [14]) [mg/kg] | lowest dose tested with significant inhibitory effect on visual placing response (CD-1 mice [4]; i.p.) [mg/kg] | effect on breath rate (CD-1 mice [5]; [13]) | ED50 (CD-1 mice [5]; [14]) [mg/kg] | dose at which inhibitory effect on breath rate was significant (CD-1 mice [5]; i.p., after 120 min, persisted up to 5 h) [mg/kg] | effect on core temperature (CD-1 mice [6]; [13]) | ED50 (CD-1 mice [6]; [14]) [mg/kg] | Ki (human CB2 receptors [7]) [nM] | Ki (mouse CB1 receptors [8]) [nM] | Ki (mouse CB2 receptors [9]) [nM] | ED50 Visual Placing (CD-1 mice [10]) [mg/kg] | ED50 Tail Pinch (CD-1 mice [11]) [mg/kg] | ED50 Drag Test (CD-1 mice [12]) [mg/kg] |
| --- | --- | --- | --- | --- | --- | --- | --- | --- | --- | --- | --- | --- | --- | --- | --- | --- | --- |
| CCCCCn1cc(Cc2cccc3ccccc23)c2ccccc21 [JWH-175, 3-(1-naphthalenylmethyl)-1-pentyl-1H-indole] | 363 ± 31 | 33.6 ± 2.4 | 487 ± 39 | dose-dependently reduced the visual placing response | 5.2 ± 0.08 | 0.01 | dose-dependently reduced the breath rate | 1.7 ± 0.15 | 0.1 | reduced | 5.6 ± 0.04 | – | – | – | – | – | – |
| CCCCCn1cc(C(=O)c2cccc3ccccc23)c2ccccc21 [JWH-018, 1-naphthalenyl(1-pentyl-1H-indol-3-yl)-methanone] | – | – | – | – | – | – | – | – | – | – | – | 8.63 ± 0.69 | 5.82 ± 0.44 | 7.13 ± 0.53 | 0.7 ± 0.06 | 1.8 ± 0.11 | 2.4 ± 0.12 |
